Assay results taken from patent US9924712B2, “Liquid concentrate formulation containing a pyripyropene insecticide II” (BASF SE, priority 2012, dated 2018).

Assay: Dissolution and solvate precipitation of pyripyropene derivative I in propylene carbonate (Alkylene carbonate A)
Type: physicochemical

C[C@]1(COC(=O)C2CC2)[C@@H]2C[C@H](O)[C@@]3(C)Oc4cc(-c5cccnc5)oc(=O)c4[C@H](O)[C@@H]3[C@@]2(C)CC[C@@H]1OC(=O)C1CC1 [pyripyropene derivative I]
Appearance of solution on continued agitation (10 wt % and 20 wt % in propylene carbonate, after additional approximately 2 hours of agitation, precipitate crystalline by microscopy): started to turn cloudy | Time for complete dissolution (10 wt % and 20 wt % solutions in Alkylene carbonate A (propylene carbonate), with agitation, both cases): about 1 hour
